Assays:
HIV-1 protease MDR 769 = target: T1, HIV-1 protease MDR 769 (Human immunodeficiency virus type 1 group M subtype B, UniProt P12497, A559V/I542V/I550V/I572V/L498I/L551P/L578M/M524V/M534L/Q495K/V570A); assay: HIV-1 protease inhibition (FRET substrate cleavage), MDR 769; assay type: biochemical; conditions: FRET substrate I, 0.1 M sodium acetate, 1.0 M NaCl, 1.0 mM EDTA, 1.0 mM DTT, 10% DMSO, 1 mg/mL BSA, pH 4.7, fluorescence 340/490 nm, read-out: IC50 of HIV-1 protease inhibitors
T1 construct: made in house; host or cells: E. coli (pET21b)
Method: (§1) The HIV-1 protease reaction buffer was 0.1 M sodium acetate, 1.0 M sodium chloride, 1.0 mM ethylenediaminetetraacetic acid (EDTA), 1.0 mM DTT, 10% dimethylsulfoxide (DMSO), and 1 mg/mL bovine serum albumin (BSA) at pH 4.7. The protease concentration was adjusted to a substrate cleavage velocity of 5 Relative Fluorescence Units (RFU)/min in the absence of regular substrate. […] Upon the addition of the HIV-1 protease, the fluorescent signal emitted through the cleavage of the FRET substrate was recorded using SpectraMax M5 (Molecular Devices, Sunnyvale, CA, USA) at an excitation wavelength of 340 nm and an emission wavelength of 490 nm. The average velocity of FRET substrate cleavage in RFU/min was calculated based on fluorescent signal at 30 time point over 30 min.

HIV-1 protease MDR 807 = target: T2, HIV-1 protease MDR 807 (Human immunodeficiency virus type 1 group M subtype B, UniProt P12497, A559V/G536V/I542T/I550V/I581L/L498I/L551Q/M534I/Q495K/Q549N/R529K/T562A/V565I/V570A); assay: HIV-1 protease inhibition (FRET substrate cleavage), MDR 807; assay type: biochemical; conditions: FRET substrate I, 0.1 M sodium acetate, 1.0 M NaCl, 1.0 mM EDTA, 1.0 mM DTT, 10% DMSO, 1 mg/mL BSA, pH 4.7, fluorescence 340/490 nm, read-out: IC50 of HIV-1 protease inhibitors
T2 construct: made in house; host or cells: E. coli (pET21b)
Method: as §1

HIV-1 protease MDR 3761 = target: T3, HIV-1 protease MDR 3761 (Human immunodeficiency virus type 1 group M subtype B, UniProt P12497, A559I/G561T/I503V/I552V/I572V/I581L/K508I/L498I/L507I/L551P/L578M/M534I/P567S/Q495K/T500A); assay: HIV-1 protease inhibition (FRET substrate cleavage), MDR 3761; assay type: biochemical; conditions: FRET substrate I, 0.1 M sodium acetate, 1.0 M NaCl, 1.0 mM EDTA, 1.0 mM DTT, 10% DMSO, 1 mg/mL BSA, pH 4.7, fluorescence 340/490 nm, read-out: IC50 of HIV-1 protease inhibitors
T3 construct: made in house; host or cells: E. coli (pET21b)
Method: as §1

HIV-1 protease NL4-3 = target: T4, HIV-1 protease NL4-3 (Human immunodeficiency virus type 1 group M subtype B, UniProt P12497, Q495K); assay: HIV-1 protease inhibition (FRET substrate cleavage), NL4-3 (WT); assay type: biochemical; conditions: FRET substrate I, 0.1 M sodium acetate, 1.0 M NaCl, 1.0 mM EDTA, 1.0 mM DTT, 10% DMSO, 1 mg/mL BSA, pH 4.7, fluorescence 340/490 nm, read-out: IC50 of HIV-1 protease inhibitors
T4 construct: made in house; host or cells: E. coli (pET21b)
Method: as §1

HIV-1 protease MDR 1385 = target: T5, HIV-1 protease MDR 1385 (Human immunodeficiency virus type 1 group M subtype B, UniProt P12497, A559V/I581L/L498F/L551P/L577M/L578M/M524I/M534I/N525D/Q495K/R545K/V570T); assay: HIV-1 protease inhibition (FRET substrate cleavage), MDR 1385; assay type: biochemical; conditions: FRET substrate I, 0.1 M sodium acetate, 1.0 M NaCl, 1.0 mM EDTA, 1.0 mM DTT, 10% DMSO, 1 mg/mL BSA, pH 4.7, fluorescence 340/490 nm, read-out: IC50 of HIV-1 protease inhibitors
T5 construct: made in house; host or cells: E. coli (pET21b)
Method: as §1

[1] = system: four MDR protease variants; conditions: four clinical MDR isolates, enzyme inhibition assays, relative to NL4-3 (WT)
Text: HIV protease Forster Resonance Energy Transfer (FRET) substrate I used in the IC50 determination and substrate interference was purchased from AnaSpec, Inc. (Fremont, CA, USA). The US FDA-approved HIV-1 protease inhibitors were kindly provided by the NIH AIDS Research and Reference Reagent Program (www.aidsreagent.org). The CA/p2 pseudopeptide with a reduced scissile peptide bond [-ψ(CH2NH)-] was synthesized in the Department of Chemistry, Wayne State University. The nine substrate hepta-peptides were purchase from SynBioSci Corporation, Livermore, CA, USA. […] The IC50 determination was described previously. […] The protease concentration was adjusted to a substrate cleavage velocity of 5 Relative Fluorescence Units (RFU)/min in the absence of regular substrate. […] Upon the addition of the HIV-1 protease, the fluorescent signal emitted through the cleavage of the FRET substrate was recorded using SpectraMax M5 (Molecular Devices, Sunnyvale, CA, USA) at an excitation wavelength of 340 nm and an emission wavelength of 490 nm. The average velocity of FRET substrate cleavage in RFU/min was calculated based on fluorescent signal at 30 time point over 30 min. In the control experiment, the average velocity of FRET substrate cleavage was determined in the absence of regular substrates. […]

| Compound | IC50 (HIV-1 protease MDR 769) [nM] | IC50 (HIV-1 protease MDR 807) [nM] | IC50 (HIV-1 protease MDR 3761) [nM] | IC50 (HIV-1 protease NL4-3) [nM] | IC50 (HIV-1 protease MDR 1385) [nM] | resistance of MDR variants to inhibitors (in words) [1] |
| --- | --- | --- | --- | --- | --- | --- |
| COC(=O)N[C@H](C(=O)N[C@@H](Cc1ccccc1)[C@@H](O)CN(Cc1ccc(-c2ccccn2)cc1)NC(=O)[C@@H](NC(=O)OC)C(C)(C)C)C(C)(C)C [ATV, atazanavir] | 2.9 | 7.6 | 2.2 | 0.19 | 4.6 | – |
| CCC[C@@]1(CCc2ccccc2)CC(O)=C([C@H](CC)c2cccc(NS(=O)(=O)c3ccc(C(F)(F)F)cn3)c2)C(=O)O1 [TPV, tipranavir] | 0.65 | 0.63 | 0.63 | 0.24 | 2.8 | – |
| Cc1cccc(C)c1OCC(=O)N[C@@H](Cc1ccccc1)[C@@H](O)C[C@H](Cc1ccccc1)NC(=O)[C@H](C(C)C)N1CCCNC1=O [LPV, lopinavir] | – | – | – | – | – | lower relative resistance |
| Cc1c(O)cccc1C(=O)N[C@@H](CSc1ccccc1)[C@H](O)CN1C[C@H]2CCCC[C@H]2C[C@H]1C(=O)NC(C)(C)C [NFV, nelfinavir] | 110 | 210 | 430 | 1.6 | 230 | – |
| CC(C)CN(C[C@@H](O)[C@H](Cc1ccccc1)NC(=O)O[C@H]1CCOC1)S(=O)(=O)c1ccc(N)cc1 [APV, amprenavir] | 4.8 | 2.9 | 4.1 | 0.43 | 3.1 | – |
